Assay results: BindingDB's records for doi:10.1016/j.bioorg.2016.05.004 (Universidade De Evora, 2016)

Legend:
[1] = target: Acetylcholinesterase (Electrophorus electricus, UniProt O42275); test: EeAChE Inhibition Assay
Method: The inhibition assay of these compounds for AChE (electrophorus electricus) and BuChE (equine serum) were determined by the spectroscopic method described by Ellman et al. which was adapted for 96-well microplates. 25 The standard compound used was galantamine. A 75 μL of different concentrations of the sample was dissolved in buffer with a maximum of 10% DMSO, 25 μL of ATCI (15 mM), and 125 μL of DTNB 3 mM were added to the wells followed by 25 μL of 0.3 U/mL AChE. The velocity was measured by the increase in the absorbance at 405 nm during 1 min time interval at 25 C in a BIO-TEK ELX800G microplate reader (using Gen5 v.1.05 software).

[2] = target: Carboxylic ester hydrolase (Equus caballus, UniProt Q9N1N9); test: EqBuChE Inhibition Assay
Method: The in vitro BuChE assay was performed similarly to the method described above. A standard enzyme activity curve was drawn for each enzyme using seven different concentrations ranging from 0.1 U/mL to 1 U/mL and enzyme activity was calculated (one unit of enzyme will hydrolyze 1.0 μmol of acetylthiocholine to thiocholine and acetate per minute). Inhibitory activity was calculated from 100 subtracted by the percentage of enzyme activity.

Sequence of Carboxylic ester hydrolase (Q9N1N9 whole entry): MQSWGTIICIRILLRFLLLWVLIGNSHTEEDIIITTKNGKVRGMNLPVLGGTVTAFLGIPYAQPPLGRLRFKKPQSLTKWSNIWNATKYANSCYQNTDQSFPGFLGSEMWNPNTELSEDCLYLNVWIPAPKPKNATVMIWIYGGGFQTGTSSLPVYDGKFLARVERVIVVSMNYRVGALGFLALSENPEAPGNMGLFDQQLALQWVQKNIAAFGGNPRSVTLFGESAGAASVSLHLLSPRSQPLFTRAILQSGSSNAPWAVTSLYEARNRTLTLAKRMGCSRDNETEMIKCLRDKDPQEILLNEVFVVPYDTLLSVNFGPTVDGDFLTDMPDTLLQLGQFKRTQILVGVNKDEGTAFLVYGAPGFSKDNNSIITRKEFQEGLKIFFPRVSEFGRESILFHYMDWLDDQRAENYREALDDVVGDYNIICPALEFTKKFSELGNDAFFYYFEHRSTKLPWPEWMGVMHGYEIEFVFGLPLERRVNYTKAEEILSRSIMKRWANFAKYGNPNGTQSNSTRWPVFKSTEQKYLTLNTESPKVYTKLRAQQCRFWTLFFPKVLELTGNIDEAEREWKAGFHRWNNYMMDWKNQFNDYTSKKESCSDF
Sequence of Acetylcholinesterase (O42275 whole entry): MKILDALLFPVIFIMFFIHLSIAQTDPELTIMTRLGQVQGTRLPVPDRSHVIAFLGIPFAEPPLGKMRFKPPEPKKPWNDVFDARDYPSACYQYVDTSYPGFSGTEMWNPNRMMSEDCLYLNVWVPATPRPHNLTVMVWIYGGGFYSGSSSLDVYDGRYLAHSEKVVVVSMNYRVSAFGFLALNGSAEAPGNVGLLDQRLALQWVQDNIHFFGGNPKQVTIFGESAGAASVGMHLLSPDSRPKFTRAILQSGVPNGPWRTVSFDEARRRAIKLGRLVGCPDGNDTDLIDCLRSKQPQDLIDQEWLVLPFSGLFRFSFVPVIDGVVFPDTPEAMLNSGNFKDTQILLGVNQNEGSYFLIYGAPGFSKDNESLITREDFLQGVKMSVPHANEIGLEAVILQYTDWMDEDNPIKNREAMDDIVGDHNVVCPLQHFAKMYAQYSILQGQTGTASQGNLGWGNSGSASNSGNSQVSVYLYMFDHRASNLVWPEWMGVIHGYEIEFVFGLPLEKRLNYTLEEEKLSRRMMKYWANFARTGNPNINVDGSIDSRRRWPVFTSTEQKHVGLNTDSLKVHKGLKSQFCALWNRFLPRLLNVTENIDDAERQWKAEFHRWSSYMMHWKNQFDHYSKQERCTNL

Row | SMILES | IC50 [1] [µM] | IC50 [2] [µM]
1 | Cc1ccc2c(c1)C(=O)NCCC2O (stereo unspecified) [Isoquinolin-1(2H)-ones, 2b] | 536 | 108
2 | O=C1NCC(O)c2ccsc21 (stereo unspecified) [Isoquinolin-1(2H)-ones, 5] | 1370 | > 1500
3 | O=C1NCCC(O)c2ncccc21 (stereo unspecified) [Isoquinolin-1(2H)-ones, 4a] | 550 | > 1500
4 | O=C1NCC(O)c2cc(Cl)ccc21 (stereo unspecified) [Isoquinolin-1(2H)-ones, 1d] | > 1500 | 226
5 | COc1ccc2c(c1)C(=O)NCC2O (stereo unspecified) [Isoquinolin-1(2H)-ones, 1e] | 311 | > 1500
6 | COC1CNC(=O)c2ccccc21 (stereo unspecified) [Isoquinolin-1(2H)-ones, 1f] | 89.5 | 154
7 | Cc1ccc2c(c1)C(O)CNC2=O (stereo unspecified) [Isoquinolin-1(2H)-ones, 1c] | > 1500 | > 1500
8 | Cc1ccc2c(n1)C(O)CCNC2=O (stereo unspecified) [Isoquinolin-1(2H)-ones, 4b] | > 1500 | > 1500
9 | COc1ccc2c3c1O[C@H]1C[C@@H](O)C=C[C@@]31CCN(C)C2 [galantamine] |  | 61.9
10 | Cc1ccc2c(c1)C(=O)NCC2O (stereo unspecified) [Isoquinolin-1(2H)-ones, 1b] | > 1500 | 352
11 | O=C1NCC(O)c2ccccc21 (stereo unspecified) [Isoquinolin-1(2H)-ones, 1a] | 136 | 807
